Test results: ChEMBL document CHEMBL5385857, “Optimization and SAR research at the benzoxazole and tetrazole rings of JNJ4796 as new anti-influenza A virus agents, part 2” (Eur J Med Chem, 2023)

Key:
[1] = Cytotoxicity against MDCK cells; assay type: toxicity, cell-based, Canis lupus familiaris; conditions: dog
Influenza A virus [2] = assay: Antiviral activity against influenza A virus H1N1 infected in MDCK cells; assay type: functional, organism-based
[3] = Selectivity index, ratio of CC50 for MDCK cells to IC50 for influenza A virus infected in MDCK cells; assay type: toxicity, cell-based; conditions: dog, read-out: Ratio CC50/IC50
Influenza A virus [4] = assay: Antiviral activity against influenza A virus H1N1 A/Puerto Rico/8/1934 infected in Kunming mouse assessed as survival rate at 15 mg/kg, po administered with compound twice daily for 7 days followed by viral infection on day 2 and measured for 14 days relative to control; assay type: functional; conditions: H1N1 A/Puerto Rico/8/1934, 336 h, time 14 day
hERG (KCNH2) = hERG (KCNH2) (Homo sapiens, UniProt Q12809); assay: Inhibition of hERG at 10 uM relative to control; assay type: toxicity
hERG (KCNH2), sequence (Q12809 whole entry): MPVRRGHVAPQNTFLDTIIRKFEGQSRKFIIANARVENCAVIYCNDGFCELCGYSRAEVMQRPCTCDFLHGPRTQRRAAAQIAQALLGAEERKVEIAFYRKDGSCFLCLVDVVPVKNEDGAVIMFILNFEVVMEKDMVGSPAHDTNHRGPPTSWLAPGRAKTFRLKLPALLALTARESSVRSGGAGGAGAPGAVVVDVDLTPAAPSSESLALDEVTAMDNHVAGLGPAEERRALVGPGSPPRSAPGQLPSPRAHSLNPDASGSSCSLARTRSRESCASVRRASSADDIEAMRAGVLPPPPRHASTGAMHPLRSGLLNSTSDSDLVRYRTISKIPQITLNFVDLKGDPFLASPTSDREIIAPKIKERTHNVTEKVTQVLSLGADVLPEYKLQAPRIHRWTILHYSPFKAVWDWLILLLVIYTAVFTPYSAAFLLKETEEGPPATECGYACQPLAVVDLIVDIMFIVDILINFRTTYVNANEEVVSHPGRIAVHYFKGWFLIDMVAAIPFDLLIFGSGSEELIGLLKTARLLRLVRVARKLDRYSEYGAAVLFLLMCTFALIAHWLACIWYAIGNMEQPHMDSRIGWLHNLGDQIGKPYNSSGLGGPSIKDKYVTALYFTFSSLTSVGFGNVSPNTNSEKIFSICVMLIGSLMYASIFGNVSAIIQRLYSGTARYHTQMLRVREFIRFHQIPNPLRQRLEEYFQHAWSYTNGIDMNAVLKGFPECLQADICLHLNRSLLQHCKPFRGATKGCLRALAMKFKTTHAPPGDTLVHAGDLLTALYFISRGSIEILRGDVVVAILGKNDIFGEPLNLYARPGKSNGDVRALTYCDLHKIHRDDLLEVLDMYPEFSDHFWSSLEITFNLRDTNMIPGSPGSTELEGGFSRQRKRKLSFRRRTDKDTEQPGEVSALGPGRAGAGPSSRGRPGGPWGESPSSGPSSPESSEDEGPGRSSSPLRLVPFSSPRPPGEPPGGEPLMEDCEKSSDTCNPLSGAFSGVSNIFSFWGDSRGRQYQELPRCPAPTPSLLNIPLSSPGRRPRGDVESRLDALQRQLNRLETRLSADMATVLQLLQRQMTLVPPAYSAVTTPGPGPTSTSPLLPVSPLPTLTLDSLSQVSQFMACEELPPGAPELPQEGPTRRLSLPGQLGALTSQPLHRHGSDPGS

[5] = Tmax in Balb/c mouse at 25 mg/kg, po administered as single dose; assay type: ADME, organism-based; conditions: in vivo
[6] = AUC (0 to infinity) in Balb/c mouse at 25 mg/kg, po administered as single dose; assay type: ADME, organism-based; parameters: dose 25 mg/kg, route po; conditions: in vivo
[7] = Elimination half life in Balb/c mouse at 25 mg/kg, po administered as single dose; assay type: ADME, organism-based; conditions: in vivo, read-out: beta t1/2 (converted)
[8] = Cmax in Balb/c mouse at 25 mg/kg, po administered as single dose; assay type: ADME, organism-based; parameters: dose 25 mg/kg, route po; conditions: in vivo
[9] = Gastrointestinal toxicity in Kunming mouse infected with influenza A virus H1N1 A/Puerto Rico/8/1934 assessed as soft stool at 1.67 to 15 mg/kg, po administered with compound twice daily for 7 days followed by viral infection on day 2 and measured for 14 days; assay type: organism-based; conditions: in vivo, 336 h, dose 1.67-15 mg/kg, time 14 day
[10] = Toxicity in Kunming mouse infected with influenza A virus H1N1 A/Puerto Rico/8/1934 assessed as reduction in body weight at 1.67 to 15 mg/kg, po administered with compound twice daily for 7 days followed by viral infection on day 2 and measured for 14 days relative to oseltamivir; assay type: organism-based; conditions: in vivo, 336 h, dose 1.67-15 mg/kg, time 14 day
Influenza A virus [11] = assay: Antiviral activity against influenza A virus H1N1 A/Puerto Rico/8/1934 infected in Kunming mouse assessed as survival rate at 1.67 mg/kg, po administered with compound twice daily for 7 days followed by viral infection on day 2 and measured for 14 days relative to control; assay type: functional; conditions: H1N1 A/Puerto Rico/8/1934, 336 h, time 14 day
Influenza A virus [12] = assay: Antiviral activity against influenza A virus H1N1 A/Puerto Rico/8/1934 infected in Kunming mouse assessed as survival rate at 5 to 15 mg/kg, po administered with compound twice daily for 7 days followed by viral infection on day 2 and measured for 14 days relative to control; assay type: functional; conditions: dose 5-15 mg/kg, time 14 day

SMILES	CC50 [1]	IC50 (Influenza A virus [2])	other results
CC(=O)Nc1ccc2oc(-c3ccnc(C(=O)N4CCN(C(c5ccc(F)cc5)c5nnn(CC6CCCCC6)n5)CC4)c3)nc2c1 (stereo not drawn)	38500 nM	360 nM	–
Cn1nnc(C(c2ccc(F)cc2)N2CCN(C(=O)c3cc(-c4nc5cc(NC(=O)c6ccco6)ccc5o4)ccn3)CC2)n1 (stereo not drawn)	12800 nM	220 nM	–
CCC(=O)Nc1ccc2oc(-c3ccnc(C(=O)N4CCN(C(c5ccc(F)cc5)c5nnn(C)n5)CC4)c3)nc2c1 (stereo not drawn)	> 50000 nM	450 nM	–
CC(=O)Nc1ccc2oc(-c3ccnc(C(=O)N4CCN(C(c5ccccc5)c5nnn(C(C)C)n5)CC4)c3)nc2c1 (stereo not drawn)	> 50000 nM	150 nM	–
CC(=O)Nc1ccc2oc(-c3ccnc(C(=O)N4CCN([C@@H](c5ccc(F)cc5)c5nnn(C(C)C)n5)CC4)c3)nc2c1	> 100000 nM	2560 nM	selectivity ratio [3]: > 39
CC(=O)Nc1ccc2oc(-c3ccnc(C(=O)N4CCN([C@H](c5ccc(F)cc5)c5nnn(C(C)C)n5)CC4)c3)nc2c1	> 100000 nM	30 nM	selectivity ratio [3]: > 3330; survival at 15 mg/kg (Influenza A virus [4]): 80%; inhibition at 10 µM (hERG (KCNH2)): 27.1%; Tmax [5]: 15 min; AUC(0-inf) [6]: 2980 ng·h/mL; half-life [7]: 75 min; Cmax [8]: 3770 ng/mL
CC(=O)Nc1ccc2oc(-c3ccnc(C(=O)N4CCN([C@H](c5ccc(F)cc5)c5nnn(C)n5)CC4)c3)nc2c1	> 100000 nM	–	Activity [9]: Toxic; Activity [10]: Non-Toxic; survival at 1.67 mg/kg (Influenza A virus [11]): 70%; Survival (Influenza A virus [12]): 100%
CC(=O)Nc1ccc2oc(-c3ccnc(C(=O)N4CCN(C(c5ccc(F)cc5)c5nnn(C6CC6)n5)CC4)c3)nc2c1 (stereo not drawn)	> 50000 nM	1190 nM	–
Cn1nnc(C(c2ccc(F)cc2)N2CCN(C(=O)c3cc(-c4nc5cc(NC(=O)C(C)(C)C)ccc5o4)ccn3)CC2)n1 (stereo not drawn)	12800 nM	350 nM	–
CCCCn1nnc([C@H](c2ccc(F)cc2)N2CCN(C(=O)c3cc(-c4nc5cc(NC(C)=O)ccc5o4)ccn3)CC2)n1	> 100000 nM	1200 nM	selectivity ratio [3]: > 83
CCC(CC)C(=O)Nc1ccc2oc(-c3ccnc(C(=O)N4CCN(C(c5ccc(F)cc5)c5nnn(C)n5)CC4)c3)nc2c1 (stereo not drawn)	28600 nM	360 nM	–
CCCn1nnc(C(c2ccc(F)cc2)N2CCN(C(=O)c3cc(-c4nc5cc(NC(C)=O)ccc5o4)ccn3)CC2)n1 (stereo not drawn)	> 50000 nM	630 nM	–
CCC(CC)n1nnc(C(c2ccc(F)cc2)N2CCN(C(=O)c3cc(-c4nc5cc(NC(C)=O)ccc5o4)ccn3)CC2)n1 (stereo not drawn)	> 50000 nM	360 nM	–
CCCC(=O)Nc1ccc2oc(-c3ccnc(C(=O)N4CCN(C(c5ccc(F)cc5)c5nnn(C)n5)CC4)c3)nc2c1 (stereo not drawn)	> 50000 nM	630 nM	–
CC(=O)Nc1ccc2oc(-c3ccnc(C(=O)N4CCN([C@H](c5ccc(F)cc5)c5nnn(C6CCCC6)n5)CC4)c3)nc2c1	87200 nM	110 nM	selectivity ratio [3]: 792; Tmax [5]: 15 min; AUC(0-inf) [6]: 692 ng·h/mL; half-life [7]: 26.5 min; Cmax [8]: 992 ng/mL
CC(=O)Nc1ccc2sc(-c3ccnc(C(=O)N4CCN(C(c5ccccc5)c5nnnn5C(C)C)CC4)c3)nc2c1 (stereo not drawn)	38500 nM	> 15000 nM	–
CCC(CC)n1nnc([C@H](c2ccc(F)cc2)N2CCN(C(=O)c3cc(-c4nc5cc(NC(C)=O)ccc5o4)ccn3)CC2)n1	> 100000 nM	400 nM	selectivity ratio [3]: > 250
C=Cn1nnc(C(c2ccc(F)cc2)N2CCN(C(=O)c3cc(-c4nc5cc(NC(C)=O)ccc5o4)ccn3)CC2)n1 (stereo not drawn)	> 50000 nM	270 nM	–
CC(=O)Nc1ccc2oc(-c3ccnc(C(=O)N4CCN(C(c5ccc(F)cc5)c5nnn(C6CCCCC6)n5)CC4)c3)nc2c1 (stereo not drawn)	> 50000 nM	270 nM	–
CC(=O)Nc1ccc2oc(-c3ccnc(C(=O)N4CCN(C(c5ccc(F)cc5)c5nnn(CCC(C)C)n5)CC4)c3)nc2c1 (stereo not drawn)	> 50000 nM	350 nM	–
CCCCn1nnc(C(c2ccc(F)cc2)N2CCN(C(=O)c3cc(-c4nc5cc(NC(C)=O)ccc5o4)ccn3)CC2)n1 (stereo not drawn)	> 50000 nM	380 nM	–
CC(=O)Nc1ccc2oc(-c3ccnc(C(=O)N4CCN([C@@H](c5ccc(F)cc5)c5nnn(C6CCCC6)n5)CC4)c3)nc2c1	96200 nM	510 nM	selectivity ratio [3]: 188
